Experiment [1] deals with Nicotiana tabacum. Kind of experiment: Increase of leaf dry weight in BC3 transgenic Nicotiana tabacum (tobacco) at 10 uM sprayed on five leaf stage plant once in a week measured after 1 week. The class given is functional, organism-based.
Experiment [2] concerns Nicotiana tabacum. Kind of experiment: Increase of poly-3-hydroxybutyrate production in BC3 transgenic Nicotiana tabacum (tobacco) plastids at 10 uM sprayed on five-leaf stage plant once in a week measured after 2 weeks relative to cytosol. The class given is functional.
In experiment [3] the test system is Nicotiana tabacum. Put plainly: Increase of poly-3-hydroxybutyrate production in rCAB8 transgenic Nicotiana tabacum (tobacco) at 50 uM sprayed on five-leaf stage plant once in a week measured after 2 weeks relative to control. The class given is functional.
In experiment [4] the test system is Nicotiana tabacum. Kind of experiment: Increase of poly-3-hydroxybutyrate production in BC3 transgenic Nicotiana tabacum (tobacco) at 10 uM sprayed on five-leaf stage plant once in a week measured after 1 week relative to control. In kind it is functional.
Experiment [5] has as its system Nicotiana tabacum. Kind of experiment: Increase of poly-3-hydroxybutyrate production in rCAB8 transgenic Nicotiana tabacum (tobacco) plastids at 50 uM sprayed on five-leaf stage plant once in a week measured after 2 weeks relative to cytosol. In kind it is functional.
Experiment [6] has as its system Nicotiana tabacum. Put plainly: Increase of poly-3-hydroxybutyrate production in BC3 transgenic Nicotiana tabacum (tobacco) at 10 uM sprayed on five leaf stage plant once in a week measured after 2 weeks relative to control. The class given is functional.
Experiment [7] concerns Nicotiana tabacum. Kind of experiment: Increase of poly-3-hydroxybutyrate production in BC3 transgenic Nicotiana tabacum (tobacco) at 2 to 50 uM sprayed on five-leaf stage plant once in a week measured after 2 weeks relative to control. The class given is functional.
For experiment [8], the system named is Nicotiana tabacum. Kind of experiment: Increase of PHA synthase level in BC3 transgenic Nicotiana tabacum (tobacco) at 10 uM sprayed on five leaf stage plant once in a week measured after 2 weeks by immunoblot analysis. The class given is functional, organism-based. Background: In western blotting, separated proteins are transferred to a membrane and probed.

Experiment [9] has as its system Nicotiana tabacum. Kind of experiment: Increase of PHA synthase level in rCAB8 transgenic Nicotiana tabacum (tobacco) at 50 uM sprayed on five leaf stage plant once in a week measured after 2 weeks by immunoblot analysis. In kind it is functional, organism-based.
For experiment [10], the system named is Nicotiana tabacum. Kind of experiment: Increase of leaf dry weight in BC3 transgenic Nicotiana tabacum (tobacco) sprayed on five-leaf stage plant once in a week measured after 2 weeks. The class given is functional, organism-based.
In experiment [11] the test system is Nicotiana tabacum. Kind of experiment: Increase of leaf dry weight in rCAB8 transgenic Nicotiana tabacum (tobacco) at 10 to 250 uM sprayed on five leaf stage plant once in a week measured after 2 weeks. The class given is functional, organism-based.
The test system of experiment [12] is Nicotiana tabacum. Put plainly: Increase of poly-3-hydroxybutyrate production in rCAB8 transgenic Nicotiana tabacum (tobacco) at 50 uM sprayed on five-leaf stage plant once in a week measured after 1 week relative to control. The class given is functional.
In experiment [13] the test system is Nicotiana tabacum. Kind of experiment: Increase of poly-3-hydroxybutyrate production in BC3 transgenic Nicotiana tabacum (tobacco) plastids at 10 uM sprayed on five-leaf stage plant once in a week measured after 2 weeks relative to control. In kind it is functional, organism-based.
The test system of experiment [14] is Nicotiana tabacum. Kind of experiment: Increase of poly-3-hydroxybutyrate production in rCAB8 transgenic Nicotiana tabacum (tobacco) plastids at 0.1 to 10 uM sprayed on five-leaf stage plant once in a week measured after 2 weeks relative to control. In kind it is functional, organism-based.
The subject of experiment [15] is Nicotiana tabacum. Put plainly: Increase of poly-3-hydroxybutyrate production in BC3 transgenic Nicotiana tabacum (tobacco) plastids at 1 uM sprayed on five-leaf stage plant once in a week measured after 2 weeks relative to control. The class given is functional.

The source made the active and inactive calls. No cut-off for these calls is given here.

Regarding `CC(Oc1ccc(Oc2cnc3cc(Cl)ccc3n2)cc1)C(=O)O` (stereo not given) [QUIZALOFOP], the result in the experiment with Nicotiana tabacum [1], in the experiment on Nicotiana tabacum [8], with Nicotiana tabacum [9] and in the experiment on Nicotiana tabacum [11] was Active. The “fold change (FC)” value with Nicotiana tabacum [2] and in the experiment on Nicotiana tabacum [5] was 2.5 each time. Besides, the Activity with Nicotiana tabacum [3] is 150%; in the experiment on Nicotiana tabacum [4], 150%; in the experiment on Nicotiana tabacum [6] it was 170%; in the experiment with Nicotiana tabacum [7], 170%; with Nicotiana tabacum [10], “Dose-dependent effect”; in the experiment on Nicotiana tabacum [12], 120%.
With `CC[C@H](C)C(=O)O[C@H]1CCC=C2C=C[C@H](C)[C@H](CC[C@@H]3C[C@@H](O)CC(=O)O3)[C@H]21` [MEVASTATIN], the result in the experiment on Nicotiana tabacum [13] was inactive. Moreover, the outcome in the experiment on Nicotiana tabacum [14] was Active. In the experiment on Nicotiana tabacum [15], this compound showed an Activity of 192%.

For the origin of these results see ChEMBL document CHEMBL3046034, “Enzyme inhibitors to increase poly-3-hydroxybutyrate production by transgenic tobacco” (2002).
